Experimental data reported in patent US20060258582A1, “Method of treating myelodysplastic syndromes” (Scios, Inc., priority 2004, published 2006).
Values belong to the compound of their own block, whether it stands above or below them.

Key:
[1] = tested on: MDS CD34+ progenitors; experiment: methylcellulose clonogenic assay, MDS CD34+ progenitors; assay type: cell-based, human; conditions: for erythroid (BFU-E) and myeloid (CFU-GM) colony formation in MDS CD34+ bone marrow cells: in vitro, methylcellulose
Protocol: MDS BM-derived CD34+ cells from 19 patients with MDS (Table 5) were cultured in methylcellulose in the presence and absence of increasing concentrations of compound 57. Results are expressed as means+/−SEM of 19 independent experiments.
(A) Total colony numbers of (A) Blast Forming unit-erythroid (BFU-E) and (B) Colony forming unit-Granulocytic Macrophage (CFU-GM) before (control) and after compound 57 treatment (100 nM) of 19 patients with MDS (Table 5).
(§1) All participants in the study signed informed consent, approved by the institutional review board of UT Southwestern and Dallas VA Medical Center. Hematopoietic progenitor colony formation was determined by clonogenic assays in methylcellulose, as detailed in previous studies. A total of 1×10^4 isolated CD34+ progenitor cells in 0.4 ml IMDM+2% FBS were resuspended in 4 ml MethoCult® (Stem Cell Technologies) and vortexed vigorously. The CD34+ cell:methylcellulose mixture was dispensed into 35 mm culture dishes (1×10^3 cells/35 mm plate) using sterile 3 cc syringe with attached sterile 16-gauge blunt-end needle. Cell cultures were incubated at 37° C., 5% CO2 in air and >95% humidity for 14-16 days. Granulocyte/macrophage colony-forming (CFU-GM) units and erythroid burst forming units (BFU-E) from different samples were scored on day 14 of culture.

[2] = target: p38α (Homo sapiens, UniProt Q16539); experiment: direct enzymatic assay for inhibition of p38α; assay type: biochemical; conditions: direct enzymatic assays
Protocol: (§2) The p38α MAPK inhibitor compound 57 was synthesized by Medicinal Chemistry (Scios, Inc., Fremont, Calif.). compound 57 has an IC50 of 9 nM for inhibition of p38α based on direct enzymatic assays, about 10-fold selectivity for p38α over p38β, and at least 2000-fold selectivity for p38α over a panel of 20 other kinases, including other MAPKs.

[3] = target: p38β (Homo sapiens, UniProt Q15759); experiment: selectivity for p38α over p38β; assay type: biochemical
Protocol: as §2

[4] = tested on: LPS-induced TNFα secretion in whole human blood; experiment: cell based assay, LPS-induced TNFα secretion in whole human blood; conditions: read-out: IC50 for inhibition of LPS-induced TNFα secretion
Protocol: Other in vitro assays can assess the production of TNF-α as a correlation to p38 MAP kinase activity. One such example is a Human Whole Blood Assay. In this assay, venous blood is collected from, e.g., healthy male volunteers into a heparinized syringe and is used within 2 hours of collection. Test compounds are dissolved in 100% DMSO and 1 μl aliquots of drug concentrations ranging from 0 to 1 mM are dispensed into quadruplicate wells of a 24-well microtiter plate (Nunclon Delta SI, Applied Scientific Co., San Francisco, Calif.). Whole blood is added at a volume of 1 ml/well and the mixture is incubated for 15 minutes with constant shaking (Titer Plate Shaker, Lab-Line Instruments, Inc., Melrose Park, Ill.) at a humidified atmosphere of 5% CO2 at 37° C. Whole blood is cultured either undiluted or at a final dilution of 1:10 with RPMI 1640 (Gibco 31800+NaHCO3, Life Technologies, Rockville, Md. and Scios, Inc., Sunnyvale, Calif.). At the end of the incubation period, 10 μl of LPS (E. coli 0111:B4, Sigma Chemical Co., St. Louis, Mo.) is added to each well to a final concentration of 1 or 0.1 μg/ml for undiluted or 1:10 diluted whole blood, respectively. The incubation is continued for an additional 2 hours. The reaction is stopped by placing the microtiter plates in an ice bath, and plasma or cell-free supernates are collected by centrifugation at 3000 rpm for 10 minutes at 4° C. […]

[5] = tested on: normal CD34+ progenitors; experiment: methylcellulose clonogenic assay, cytokine-suppressed normal CD34+ progenitors; assay type: cell-based, human
Protocol: Primary bone marrow derived CD34+ cells were cultured in methylcellulose in the presence and absence of 20 ng/ml TNFα and with the indicated concentrations of compound 57 (nM). BFU-E and CFU-GM colonies were scored on Day 14. Results are expressed as means+/−S.E.M. of three independent experiments.
Primary bone marrow derived CD34+ cells were cultured in methylcellulose in the presence and absence of […] IFNγ and with the indicated concentrations of the p38α inhibitors (compound 57; nM) or compound 162. BFU-E and CFU-GM colonies were scored on Day 14. Results are expressed as means+/−S.E.M. of three independent experiments.
as §1, with “Cell cultures were incubated at 37° C., 5% CO2 in air and >95% humidity for 14-16 days.” left out

[6] = tested on: TNFα secretion from BMMNC; experiment: basal and LPS-induced TNFα secretion from normal BMMNC, ELISA; assay type: cell-based; conditions: Homo sapiens, basal or LPS-induced normal BMMNC cultures, 24 h, read-out: IC50 for inhibition of TNFα secretion
Protocol: BMMNC (1×10^6) from a normal healthy donor were cultured in the absence and presence of increasing concentrations of compound 57 for 24 hours without or with 10 ng/ml LPS. TNFα concentration in cell supernatants were determined by ELISA. Figure represents Mean+/−SD of three independent experiments.
(§3) TNFα, IL-6, VEGF, and IFNγ concentrations of the cell culture supernatants were assayed using ELISA kits from BioSource International (Camarillo, Calif.). MCP-1, MMP-2 and MMP-9 concentrations were assayed using ELISA kits from R&D Systems.

[7] = tested on: BMSC; experiment: cDNA microarray analysis of chemokines in TNFα- or IL-1β-stimulated BMSC; assay type: cell-based, human
Text: Details of microarray and data analysis have been described previously. The data was normalized using the maNorm function in array package of Bioconductor version 1.5.8. Differential expression values were expressed as the ratio of the median of background-subtracted fluorescence intensity of the experimental RNA to the median of background-subtracted fluorescence intensity of the control RNA. The total BMSC RNA was extracted from cells using Qiagen's RNeasy kit (Valencia, Calif.). Arrays were probed in quadruplicate for a total of 16 hybridizations: control versus TNFα (24 hours), TNFα versus compound 57+TNFα (24 hours), control versus IL-1β (24 hours), IL-1β versus compound 57+IL-1β (24 hours).

[8] = tested on: IFNγ production; experiment: IFNγ production in IL-12 and IL-18-induced BMMNC, ELISA; assay type: cell-based; conditions: Homo sapiens, 24 hours, read-out: IC50 for block of IFNγ production
Protocol: BMMNC (1×10^6) from a normal healthy donor were stimulated with IL-12, IL-18 or both in the presence or absence of increasing concentrations of compound 57 for 24 h. IFN-γ concentration in cell supernatants was determined by ELISA. Figure represents Mean+/−SD of three independent experiments.
as §3

[9] = tested on: IFNγ; experiment: induction of IFNγ by anti-CD3 antibody; assay type: cell-based; conditions: data not shown
[10] = microarray ratio IL-1β versus compound 57+IL-1β, 24 hours
[11] = microarray ratio TNFα versus compound 57+TNFα

Sequence of p38β (Q15759 whole entry): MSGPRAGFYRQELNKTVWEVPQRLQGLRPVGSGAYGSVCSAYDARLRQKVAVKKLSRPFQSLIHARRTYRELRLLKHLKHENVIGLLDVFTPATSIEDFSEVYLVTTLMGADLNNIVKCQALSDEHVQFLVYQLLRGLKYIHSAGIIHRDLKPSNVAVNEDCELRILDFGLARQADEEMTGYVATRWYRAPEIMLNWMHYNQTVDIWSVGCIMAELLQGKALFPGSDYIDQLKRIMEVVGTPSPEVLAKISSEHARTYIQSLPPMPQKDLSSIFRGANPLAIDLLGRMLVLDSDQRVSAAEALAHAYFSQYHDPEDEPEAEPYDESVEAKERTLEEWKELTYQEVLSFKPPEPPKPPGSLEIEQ
Sequence of p38α (Q16539 whole entry): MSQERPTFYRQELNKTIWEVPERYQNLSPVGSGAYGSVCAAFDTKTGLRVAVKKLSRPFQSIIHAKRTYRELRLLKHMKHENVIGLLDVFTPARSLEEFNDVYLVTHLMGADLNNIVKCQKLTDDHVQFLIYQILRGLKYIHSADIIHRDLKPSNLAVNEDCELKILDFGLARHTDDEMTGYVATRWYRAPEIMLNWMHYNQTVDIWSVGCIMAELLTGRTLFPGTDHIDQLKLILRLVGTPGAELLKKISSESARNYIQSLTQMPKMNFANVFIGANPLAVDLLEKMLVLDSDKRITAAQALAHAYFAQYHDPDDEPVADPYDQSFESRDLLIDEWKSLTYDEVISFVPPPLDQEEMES

SMILES: COc1cccc(-c2cc(=O)c3ccccc3o2)c1N [PD 98059]
erythroid (BFU-E) and myeloid (CFU-GM) colony formation in MDS CD34+ bone marrow cells [1]: not observed

SMILES: CCc1nc(-c2ccc(OC)cc2)[nH]c1-c1ccncc1 [SB 202474]
erythroid (BFU-E) and myeloid (CFU-GM) colony formation in MDS CD34+ bone marrow cells [1]: not observed

IC50 [2]: 9 nM
selectivity for p38α over p38β [3]: about 10 fold
IC50 [4]: 1300 nM
IC50 [8]: < 50 nM
SMILES: COc1cc2c(cc1C(=O)N1C[C@H](C)N(Cc3ccc(F)cc3)C[C@H]1C)c(C(=O)C(=O)N(C)C)cn2C [compound 57]
increase in both BFU-E and CFU-GM colony numbers compared to those without compound ([5]; TNFα-treated CD34+ progenitors, 50 nM compound): about 100%
increase in myeloid and erythroid colony numbers in MDS progenitors ([1]; 20 nM-100 nM compound): 2-3 fold
IC50 [6]: 50 nM
CCL2 (MCP-1) differential expression, C57 + IL-1β [7, 10]: −1.4
CCL7 (MCP3) differential expression, C57 + IL-1β [7, 10]: −1.5
CXCL1 (GROα) differential expression, C57 + IL-1β [7, 10]: −1.6
CXCL3 (GROγ) differential expression, C57 + IL-1β [7, 10]: 1.3
CXCL6 (GCP2) differential expression, C57 + IL-1β [7, 10]: −1.6
CXCL10 (IP10) differential expression, C57 + IL-1β [7, 10]: 1.0
CXCL11 (ITAC) differential expression, C57 + IL-1β [7, 10]: 0.0
CXCL16 (SR-PSOX) differential expression, C57 + IL-1β [7, 10]: −4.2
CCL2 (MCP-1) differential expression, C57 + TNFα (24 h) [7, 11]: −1.7
CCL7 (MCP3) differential expression, C57 + TNFα (24 h) [7, 11]: −2.2
CXCL1 (GROα) differential expression, C57 + TNFα (24 h) [7, 11]: −2.9
CXCL3 (GROγ) differential expression, C57 + TNFα (24 h) [7, 11]: −1.6
CXCL6 (GCP2) differential expression, C57 + TNFα (24 h) [7, 11]: −5.3
CXCL10 (IP10) differential expression, C57 + TNFα (24 h) [7, 11]: −2.9
CXCL11 (ITAC) differential expression, C57 + TNFα (24 h) [7, 11]: −1.4
CXCL16 (SR-PSOX) differential expression, C57 + TNFα (24 h) [7, 11]: 1.4
induction of IFNγ by anti-CD3 antibody [9]: not inhibited

SMILES: CN(C)C(=O)C(=O)c1c[nH]c2cc(Cl)c(C(=O)N3CCC(Cc4ccc(F)cc4)CC3)cc12 [compound 162]
IFNγ-induced suppression of erythroid and myeloid colony formation ([5]; normal CD34+ progenitors, IFNγ, day 14): reverses
